Laboratory results published in patent US5801260A, “Carbonothioate phospholipid analogs as substrate of phospholipases and lipases” (priority 1995, dated 1998).

Key:
[1] = target: T1, cobra venom phospholipase A2 (Naja atra, UniProt P00598); experiment: Inhibition of phospholipase A2 by a reversible inhibitor, carbonothioate assay; assay type: biochemical; conditions: substrate 1-decanoyl-2-octylcarbonothioyl-sn-glycero-3-phosphocholine 0.5 mM, standard buffer with 4.24 mM Triton X-100; inhibitor 1 μM to 20 μM; FIG. 8
T1 construct: cobra venom phospholipase A2 (Naja naja atra); from tissue; host or cells: venom of Naja naja atra
T1 sequence (P00598 28-146 limits assumed): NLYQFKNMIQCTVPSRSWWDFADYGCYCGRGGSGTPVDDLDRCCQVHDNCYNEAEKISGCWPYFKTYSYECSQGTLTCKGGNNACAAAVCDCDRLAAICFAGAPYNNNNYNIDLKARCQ
Description: (§1) (b) Method: The desired amount of carbonothioate phospholipid in methylene chloride was evaporated to dryness under a stream of nitrogen. An appropriate volume of buffer A is added. This solution was sonicated in a bath sonicator to clearness. The assay was carried out at 40° C. A cuvette, containing 0.3 mL of assay mixture and 5 μL of DTNB was placed in the compartment of a spectrophotometer thermostated at 40° C. After equilibration of the substrate for 2 min at 40° C., a stable baseline was recorded for 150 sec. To initiate the reaction, cobra venom phospholipase A2 (Naja naja atra) (5 μL containing 125 ng protein in buffer B) was added to the cuvette and the reaction was recorded spectrophotometrically at 412 nm for 150 sec. The phospholipase activity is calculated using the extinction coefficient of 12,000 M^-1 cm^-1. Between each run, the cuvette is rinsed with Clorox, water and acetone.
Method: The appropriate volume of carbonothioate phospholipid in methylene chloride was dried under a stream of nitrogen. […] The enzymatic activity was determined similarly to Example 5 except that 500 ng enzyme was used.
A solution of 1-decanoyl-2-octylcarbonothioyl-sn-glycero-3-phosphocholine (1.0 mM) in buffer C was prepared as in Example 6. […] The enzymatic activity in the presence of the amide analog was determined as in Example 6.

[2] = target: T1, cobra venom phospholipase A2; experiment: Inactivation of phospholipase A2 by an irreversible inhibitor, carbonothioate assay of residual activity; assay type: biochemical; conditions: enzyme preincubated with 100 μM inhibitor at 40° C.; substrate 1-decanoyl-2-octylcarbonothioyl-sn-glycero-3-phosphocholine 0.5 mM, 4.24 mM Triton X-100; FIG. 9
Description: as §1
Method: The appropriate volume of carbonothioate phospholipid in methylene chloride was dried under a stream of nitrogen. To prepare mixed micelles, the appropriate volume of buffer C was added, and the volume was brought to the final volume with buffer B. This solution was bath-sonicated to obtain a clear solution. The enzymatic activity was determined similarly to Example 5 except that 500 ng enzyme was used. […]

| Compound | inhibition of cobra venom phospholipase A2 as determined by the carbonothioate assay [1] | inhibition of cobra venom phospholipase A2 as followed by the carbonothioate assay [2] |
| --- | --- | --- |
| CCCCCCCCCCCCCCCCSC[C@H](COP(=O)([O-])OCC[N+](C)(C)C)NC(=O)CCCCCCCCCCCCCCC [amide substrate analogs, 1-hexadecyl-thio-2-hexadecanoylamino-1,2-dideoxy-sn-glycero-3-phosphocholine] | inhibition |  |
| CCCCCCCCCC(=O)OCC(COP(=O)([O-])OCC[N+](C)(C)C)OC(=O)CC(C)(C)CC(=O)Oc1ccc([N+](=O)[O-])cc1 (centres unmarked) [irreversible inhibitor] |  | time-dependent inhibition |
